pIC50: −log10 of the molar value. Where two headings read alike, the source gives them in different places.
What was measured:
[1] = XTT cytotoxicity assay on uninfected Hep2 cells; type: cell-based; conditions: human
Experimental: Uninfected confluent monolayers (seeded at 2.2×10^4 cells/well) of Hep2 cells were grown in microtiter wells (96-well plates) in EMEM (Eagle Minimum Essential Medium w/o L-glutamine [Bio Whittaker Cat. No. 12-125F] with 3% fetal bovine serum (FBS; which had been heat inactivated for 30 minutes at 56° C.; Bio Whittaker Cat. No. 14-501F), antibiotics (penicillin/streptomycin; Bio Whittaker Cat. No. 17-602E) added at 1%, and glutamine added at 1% (complete EMEM). The plates were incubated for 24 hours and used for antiviral assays and cytotoxicity assays.
Cytotoxicity assays were conducted by first removing all medium from the well containing uninfected Hep2 cells, adding 100 μl complete EMEM, and then adding hetero-substituted benzimidazole compounds (eight 3-fold dilutions with 100 μM concentration as the highest final concentration). Complete EMEM (50 μl) was added to each well instead of virus and the plates were incubated in a CO2 incubator at 37° C. for 48 hours.
At 48 hours, the cytotoxicity assays were developed by adding to each well 50 μl of XTT (1 mg/ml in PBS) containing 0.01-0.02 mM of the electron coupling agent phenazine methosulfate (PMS). The plates were incubated for 2-4 hours at 37° C. and then read in a 96-well plate reader at 450 nm. Plotting the % average OD of treated wells compared to the cell control vs. compound concentration generated dose response curves. CC50 (50% inhibitory cytotoxic concentration) values for each compound were then calculated from these curves. […]

RSV = experiment: Antiviral assay (PRA): inhibition of RSV syncytial plaque formation on Hep2 cell monolayers; type: cell-based; conditions: human respiratory syncytial virus, read-out: PRA (IC50)
Experimental: The lower the observed level of fusion, the greater the antiviral activity of the compound was determined to be. Uninfected confluent monolayers (seeded at 2.2×10^4 cells/well) of Hep2 cells were grown in microtiter wells (96-well plates) in EMEM (Eagle Minimum Essential Medium w/o L-glutamine [Bio Whittaker Cat. […] Bio Whittaker Cat. No. 14-[…]), antibiotics (penicillin/streptomycin; Bio Whittaker Cat. […] The plates were incubated for 24 hours and used for antiviral assays and cytotoxicity assays. To prepare Hep2 cells for addition to uninfected cells, cultures of […] infected Hep2 cells were washed with DPBS (Dulbecco's Phosphate Buffered Saline w/o calcium or magnesium; Bio Whittaker Cat. […] Gibco Life Technologies Cat. No. 15040-017). The cells were spun for 10 minutes and resuspended in 3% FBS. Cell counts were performed using a hemacytometer. Persistent cells were added to the uninfected Hep2 cells. The antiviral assay was conducted by first removing all medium from the wells containing uninfected Hep2 cells, adding 100 μl complete EMEM, then adding hetero-substituted benzimidazole compounds (eight 3-fold dilutions with 20 μM concentration as the highest final concentration) in 50 μl complete EMEM. Approximately 50 […] plaque forming units (PFU) of RSV in 50 μl was added per well and the plates were incubated in a CO2 incubator at 37° C. for 48 hours. Each plate contained uninfected control wells and infected untreated control wells for calculation of % inhibition (EC50) for each concentration. After incubation, cells in control wells were checked for fusion centers, medium was removed from the wells followed by addition to each well of either Crystal Violet stain or XTT. With respect to Crystal Violet, approximately 50μl 0.25% Crystal Violet stain in methanol was added to each well. The wells were rinsed immediately, to remove excess stain, and were allowed to dry. The number of syncytia per well were then counted, using a dissecting microscope. For antiviral assays at 48 hours post infection, cells in control wells were checked for syncytial plaques. Medium was removed from the wells followed by addition of approximately 50 Al Crystal Violet stain (0.25% Crystal Violet, 0.25% Giemsa dissolved in 10% formaldehyde, 70% methanol, and 20% H2O). The wells were incubated at room temperature for 5 minutes, rinsed with H2O to remove excess stain, and allowed to dry. The number of syncytia per well were counted using a dissecting microscope. The 50% inhibitory concentration (EC50) for each compound was calculated from the dose response curve. The compounds listed in Tables 1-2 have been screened for inhibitory activity against RSV.

[2] = HEp-2, Table 1, RSV-infected Hep2 cells, 48 hours, syncytia counted
[3] = HEp-2, Table 2, RSV-infected Hep2 cells, 48 hours, syncytia counted

| SMILES | pIC50 (RSV; [2]) | pIC50 (RSV; [3]) | CC50 at 48 h ([1]; Table 1, uninfected Hep2 cells, 48 hours, read-out: XTT (CC50)) [nM] | pIC50 (RSV; HEp-2, 48 h) | CC50 at 48 h [1] [nM] |
| --- | --- | --- | --- | --- | --- |
| OCCN(CCO)CCNCc1nc2cccnc2n1Cc1nc2ccccc2[nH]1 [compound 1, 2-[(2-{[3-(1H-Benzoimidazol-2-ylmethyl)-3H-imidazo[4,5-b]pyridin-2-ylmethyl]-amino}-ethyl)-(2-hydroxy-ethyl)-amino]-ethanol] |  |  | ≥ 100000 | 6.80 |  |
| c1ccc2[nH]c(Cn3c(CNCCN4CCOCC4)nc4cccnc43)nc2c1 [compound 2, [3-(1H-Benzoimidazol-2-ylmethyl)-3H-imidazo[4,5-b]pyridin-2-ylmethyl]-(2-morpholin-4-yl-ethyl)-amine] | 6.62 |  |  |  | ≥ 100000 |
| COCCN(C)Cc1nc2cccnc2n1Cc1nc2ccccc2[nH]1 [compound 3, [3-(1H-Benzoimidazol-2-ylmethyl)-3H-imidazo[4,5-b]pyridin-2-ylmethyl]-(2-methoxy-ethyl)-methyl-amine] | 6.82 |  |  |  | ≥ 100000 |
| c1ccc2[nH]c(Cn3c(CNCCCN4CCOCC4)nc4cccnc43)nc2c1 [compound 4, [3-(1H-Benzoimidazol-2-ylmethyl)-3H-imidazo[4,5-b]pyridin-2-ylmethyl]-(3-morpholin-4-yl-propyl)-amine] | 6.72 |  |  |  | ≥ 100000 |
| CN1CCN(CCCNCc2nc3cccnc3n2Cc2nc3ccccc3[nH]2)CC1 [compound 5, [3-(1H-Benzoimidazol-2-ylmethyl)-3H-imidazo[4,5-b]pyridin-2-ylmethyl]-[3-(4-methyl-piperazin-1-yl)-propyl]-amine] | 8.05 |  |  |  | ≥ 100000 |
| OCCN(CCO)CCCNCc1nc2cccnc2n1Cc1nc2ccccc2[nH]1 [compound 6, 2-[(3-{[3-(1H-Benzoimidazol-2-ylmethyl)-3H-imidazo[4,5-b]pyridin-2-ylmethyl]-amino}-propyl)-(2-hydroxy-ethyl)-amino]-ethanol] | 6.72 |  |  |  | ≥ 100000 |
| c1ccc2[nH]c(Cn3c(CNC4CCCC4)nc4cccnc43)nc2c1 [compound 7, [3-(1H-Benzoimidazol-2-ylmethyl)-3H-imidazo[4,5-b]pyridin-2-ylmethyl]-cyclopentyl-amine] | 8.40 |  |  |  | ≥ 100000 |
| c1ccc2[nH]c(Cn3c(CN4CCNCC4)nc4cccnc43)nc2c1 [compound 16, 3-(1H-Benzoimidazol-2-ylmethyl)-2-piperazin-1-ylmethyl-3H-imidazo[4,5-b]pyridine] |  | 6.92 |  |  | ≥ 100000 |
| O=C(Cc1ccccc1)N1CCN(Cc2nc3cccnc3n2Cc2nc3ccccc3[nH]2)CC1 [compound 17, 1-{4-[3-(1H-Benzoimidazol-2-ylmethyl)-3H-imidazo[4,5-b]pyridin-2-ylmethyl]-piperazin-1-yl}-2-phenyl-ethanone] |  | 7.70 |  |  | ≥ 100000 |
| Cn1cnc(S(=O)(=O)N2CCN(Cc3nc4cccnc4n3Cc3nc4ccccc4[nH]3)CC2)c1 [compound 19, 3-(1H-Benzoimidazol-2-ylmethyl)-2-[4-(1-methyl-1H-imidazole-4-sulfonyl)-piperazin-1-ylmethyl]-3H-imidazo[4,5-b]pyridine] |  |  |  |  | ≥ 100000 |

Further lines, with some results ahead:

| pIC50 (RSV; [2]) | pIC50 (RSV; [3]) | SMILES | CC50 at 48 h ([1]; Table 1, uninfected Hep2 cells, 48 hours, read-out: XTT (CC50)) [nM] | pIC50 (RSV; HEp-2, 48 h) | CC50 at 48 h [1] [nM] |
| --- | --- | --- | --- | --- | --- |
| 8.30 |  | CC(C)N(Cc1ccccc1)Cc1nc2cccnc2n1Cc1nc2ccccc2[nH]1 [compound 8, [3-(1H-Benzoimidazol-2-ylmethyl)-3H-imidazo[4,5-b]pyridin-2-ylmethyl]-benzyl-isopropyl-amine] |  |  | ≥ 100000 |
| 8.52 |  | CC(C)N(C)Cc1nc2cccnc2n1Cc1nc2ccccc2[nH]1 [compound 9, [3-(1H-Benzoimidazol-2-ylmethyl)-3H-imidazo[4,5-b]pyridin-2-ylmethyl]-isopropyl-methyl-amine] |  |  | ≥ 100000 |
| 8.30 |  | CC(C)N(Cc1nc2cccnc2n1Cc1nc2ccccc2[nH]1)C(C)C [compound 12, [3-(1H-Benzoimidazol-2-ylmethyl)-3H-imidazo[4,5-b]pyridin-2-ylmethyl]-diisopropyl-amine] |  |  | ≥ 100000 |
|  | 9.00 | c1ccc2[nH]c(Cn3c(CN4CCOCC4)nc4cccnc43)nc2c1 [compound 13, 3-(1H-Benzoimidazol-2-ylmethyl)-2-morpholin-4-ylmethyl-3H-imidazo[4,5-b]pyridine] |  |  | ≥ 100000 |
|  | 8.30 | FC(F)(F)c1ccc(N2CCN(Cc3nc4cccnc4n3Cc3nc4ccccc4[nH]3)CC2)cc1 [compound 14, 3-(1H-Benzoimidazol-2-ylmethyl)-2-[4-(4-trifluoromethyl-phenyl)-piperazin-1-ylmethyl]-3H-imidazo[4,5-b]pyridine] |  |  | ≥ 100000 |
|  | 7.89 | Oc1cc2c(cc1O)CN(Cc1nc3cccnc3n1Cc1nc3ccccc3[nH]1)CC2 [compound 15, 2-[3-(1H-Benzoimidazol-2-ylmethyl)-3H-imidazo[4,5-b]pyridin-2-ylmethyl]-1,2,3,4-tetrahydro-isoquinoline-6,7-diol] |  |  | ≥ 100000 |
|  | 8.40 | CC(=O)N1CCN(Cc2nc3cccnc3n2Cc2nc3ccccc3[nH]2)CC1 [compound 18, 1-{4-[3-(1H-Benzoimidazol-2-ylmethyl)-3H-imidazo[4,5-b]pyridin-2-ylmethyl]-piperazin-1-yl}-ethanone] |  |  | ≥ 100000 |
|  | 8.30 | O=C(Nc1ccc2c(c1)OCCCO2)N1CCN(Cc2nc3cccnc3n2Cc2nc3ccccc3[nH]2)CC1 [compound 20, 4-[3-(1H-Benzoimidazol-2-ylmethyl)-3H-imidazo[4,5-b]pyridin-2-ylmethyl]-piperazine-1-carboxylic acid (3,4-dihydro-2H-benzo[b][1,4]dioxepin-7-yl)-amide] |  |  | ≥ 100000 |
|  | 7.89 | O=C(c1ccco1)N1CCN(Cc2nc3cccnc3n2Cc2nc3ccccc3[nH]2)CC1 [compound 21, {4-[3-(1H-Benzoimidazol-2-ylmethyl)-3H-imidazo[4,5-b]pyridin-2-ylmethyl]-piperazin-1-yl}-furan-2-yl-methanone] |  |  | ≥ 100000 |
|  | 8.70 | OCC1CCCN1Cc1nc2cccnc2n1Cc1nc2ccccc2[nH]1 (stereo not drawn) [compound 22, {1-[3-(1H-Benzoimidazol-2-ylmethyl)-3H-imidazo[4,5-b]pyridin-2-ylmethyl]-pyrrolidin-2-yl}-methanol] |  |  | ≥ 100000 |
|  | 8.00 | OCCC1CCCCN1Cc1nc2cccnc2n1Cc1nc2ccccc2[nH]1 (stereo not drawn) [compound 23, 2-{1-[3-(1H-Benzoimidazol-2-ylmethyl)-3H-imidazo[4,5-b]pyridin-2-ylmethyl]-piperidin-2-yl}-ethanol] |  |  | ≥ 100000 |
|  | 7.70 | c1ccc2c(c1)CN(Cc1nc3cccnc3n1Cc1nc3ccccc3[nH]1)C2 [compound 27, 3-(1H-Benzoimidazol-2-ylmethyl)-2-(1,3-dihydro-isoindol-2-ylmethyl)-3H-imidazo[4,5-b]pyridine] |  |  | ≥ 100000 |
|  | 7.80 | Cc1cc(S(=O)(=O)N2CCN(Cc3nc4cccnc4n3Cc3nc4ccccc4[nH]3)CC2)c(C)s1 [compound 28, 3-(1H-Benzoimidazol-2-ylmethyl)-2-[4-(2,5-dimethyl-thiophene-3-sulfonyl)-piperazin-1-ylmethyl]-3H-imidazo[4,5-b]pyridine] |  |  | ≥ 100000 |

Source: patent US20040166137A1, “Hetero-substituted benzimidazole compounds and antiviral uses thereof” (priority 2002, published 2004)
